How the values were obtained:
Experiment in all cases: relative viability (nuclei count vs DMSO), 5 days (fraction); higher = more cells survive
[1] = compound: CN(c1ncccc1CNc1nc(Nc2ccc3c(c2)CC(=O)N3)ncc1C(F)(F)F)S(C)(=O)=O + COc1cc2c(Oc3ccc(NC(=O)C4(C(=O)Nc5ccc(F)cc5)CC4)cc3F)ccnc2cc1OCCCN1CCOCC1 [Foretinib] (partner 0.25 µM)
In short: (§1)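 Lung cancer cell lines in 1536-well plates got either a single drug or a fixed anchor-drug dose together with five library-drug doses (not always all listed) in √10 steps, by pin tool, on the day after seeding. Nuclei were counted after 5 days, and relative viability is the treated-to-vehicle ratio of nuclei counts. Values are medians of duplicate plates.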

[2] = compound: CN(c1ncccc1CNc1nc(Nc2ccc3c(c2)CC(=O)N3)ncc1C(F)(F)F)S(C)(=O)=O + Cc1nc(NC(=O)N2CCC[C@H]2C(N)=O)sc1-c1ccnc(C(C)(C)C(F)(F)F)c1 [Alpelisib] (partner 2 µM)
In short: as §1

[3] = compound: CN(c1ncccc1CNc1nc(Nc2ccc3c(c2)CC(=O)N3)ncc1C(F)(F)F)S(C)(=O)=O + Nc1nc2[nH]cc(CCc3ccc(C(=O)N[C@@H](CCC(=O)O)C(=O)O)cc3)c2c(=O)[nH]1 [Pemetrexed] (partner 0.2 µM)
In short: as §1

[4] = compound: CN(c1ncccc1CNc1nc(Nc2ccc3c(c2)CC(=O)N3)ncc1C(F)(F)F)S(C)(=O)=O + O=C(c1cc(Cc2n[nH]c(=O)c3ccccc23)ccc1F)N1CCN(C(=O)C2CC2)CC1 [Olaparib] (partner 8 µM)
In short: as §1

Cell Line | relative viability ([1]; first compound 0.01 µM) | relative viability ([1]; first compound 0.03162 µM) | relative viability ([1]; first compound 0.1 µM) | relative viability ([1]; first compound 0.3162 µM) | relative viability ([1]; first compound 1 µM) | relative viability ([2]; first compound 0.01 µM) | relative viability ([2]; first compound 0.03162 µM) | relative viability ([2]; first compound 0.1 µM) | relative viability ([2]; first compound 0.3162 µM) | relative viability ([2]; first compound 1 µM) | relative viability ([3]; first compound 0.01 µM) | relative viability ([3]; first compound 0.03162 µM) | relative viability ([3]; first compound 0.1 µM) | relative viability ([3]; first compound 0.3162 µM) | relative viability ([3]; first compound 1 µM) | relative viability ([4]; first compound 0.01 µM) | relative viability ([4]; first compound 0.03162 µM) | relative viability ([4]; first compound 0.1 µM) | relative viability ([4]; first compound 0.3162 µM) | relative viability ([4]; first compound 1 µM)
SW 1573 | 0.961 | 0.856 | 0.884 | 1.16 | 0.975 | 0.73 | 1.08 | 0.628 | 0.922 | 0.778 | 0.869 | 0.928 | 0.826 | 0.934 | 0.837 | 0.491 | 0.682 | 0.443 | 0.517 | 0.398
NCI-H1651 | 0.817 | 0.88 | 0.906 | 0.765 | 0.784 | 0.992 | 1 | 0.873 | 0.899 | 0.916 | 0.585 | 0.593 | 0.558 | 0.575 | 0.579 | 0.187 | 0.172 | 0.204 | 0.183 | 0.197
NCI-H2023 | 0.791 | 0.715 | 0.731 | 0.752 | 0.642 | 0.521 | 0.677 | 0.668 | 0.59 | 0.507 | 0.181 | 0.241 | 0.221 | 0.228 | 0.214 | 0.458 | 0.476 | 0.467 | 0.359 | 0.407
COR-L 105 | 1 | 1.27 | 0.989 | 0.848 | 0.773 | 1.06 | 1.16 | 1.13 | 0.887 | 0.872 | 1.09 | 1.06 | 1.07 | 1.11 | 1.05 | 0.794 | 0.709 | 0.728 | 0.645 | 0.522
NCI-H1734 | 0.93 | 0.911 | 0.796 | 0.828 | 0.712 | 0.665 | 0.778 | 0.666 | 0.631 | 0.641 | 0.421 | 0.379 | 0.395 | 0.421 | 0.439 | 0.586 | 0.677 | 0.614 | 0.594 | 0.596
NCI-H3122 | 1.01 | 0.876 | 0.916 | 0.902 | 0.929 | 0.748 | 0.982 | 0.684 | 0.822 | 0.728 | 0.202 | 0.194 | 0.175 | 0.181 | 0.193 | 0.658 | 0.65 | 0.604 | 0.568 | 0.574
CAL-12T | 1.32 | 1.2 | 1.1 | 1.1 | 0.838 | 1.12 | 1.58 | 1.26 | 1.16 | 0.946 | 1.24 | 1.12 | 1.25 | 1.36 | 0.982 | 0.766 | 0.697 | 0.619 | 0.775 | 0.636
HCC-78 | 0.543 | 0.571 | 0.533 | 0.562 | 0.514 | 0.368 | 0.407 | 0.285 | 0.361 | 0.31 | 0.907 | 0.922 | 0.921 | 0.922 | 0.929 | 0.856 | 0.999 | 0.783 | 0.797 | 0.714
NCI-H2085 | 0.878 | 0.925 | 0.906 | 0.824 | 0.748 | 0.903 | 0.904 | 0.882 | 0.922 | 0.812 | 0.917 | 0.774 | 0.885 | 0.953 | 0.947 | 0.79 | 0.81 | 0.71 | 0.759 | 0.696
